Where “and” joins values, the source holds several entries; their conditions need not be identical. Identical values can stand only once.
Tests used:
K562 cells [1] = assay: mRNA-Sequencing, K562 cells; format: cell-based, human; conditions: 24 hours
Description: Cells were seeded at densities of 1×10^6/mL in culture flasks (Nalge Nunc, New York, USA) and treated with hydroxytyrosol (0, 20, 100 μM), for 24 hours at 37° C., 5% (v/v) CO2. mRNA sequencing was performed by TRIZOL extraction and library preparation using Illumina kits according to manufacturer's protocols. Next generation sequencing (NGS) was performed at a depth of approximately 20 million mapped reads per sample to determine the effect of hydroxytyrosol on genome-wide gene expression, in human erythroleukemic K562 cells and human keratinocytes (24 hr treatment, 20 and 100 μM). Reads generated by the Illumina base calling software V1.6 were aligned with Burrows Wheeler Aligner to the human transcriptome database curated by RefSeq (Hg18 build). Raw counts were normalized to adjust for slightly differing data volume across lanes giving the widely used score reads per transcript per million reads. These scores were used to determine relative fold changes and the conventionally used ±1.5 fold-change, which is discernible with qRT-PCR, was defined a significant change in expression. The online program MetaCore (GeneGo Inc. St. Joseph, MI, USA) was used for pathway analysis.
Cells were seeded at densities of 1×10^6/mL in culture flasks (Nalge Nunc, New York, USA) and K562 cells were treated with or without 100 μM hydroxytyrosol for 24 hours at 37° C., 5% (v/v) CO2. mRNA sequencing was performed by TRIZOL extraction and library preparation using Illumina kits according to manufacturer's protocols. Next generation sequencing (NGS) was performed at a depth of approximately 20 million mapped reads per sample. Reads generated by the Illumina base calling software V1.6 were aligned with Burrows Wheeler Aligner to the human transcriptome database curated by RefSeq (Hg18 build). Raw counts were normalized to adjust for slightly differing data volume across lanes giving the widely used score reads per transcript per million reads. These scores were used to determine relative fold changes and the conventionally used ±1.5 fold-change, which is discernible with qRT-PCR, was defined a significant change in expression. The online program MetaCore (GeneGo Inc. St. Joseph, MI, USA) was used for pathway analysis. The Warburg gene-set shown in Table 10 was used to investigate changes in Warburg-related genes in human erythroleukemic compared to normal peripheral blood mononuclear cells and changes in expression of Warburg-related genes following incubation of K562 cells with hydroxytyrosol.

human keratinocytes = assay: γH2AX immunofluorescence, keratinocytes after γ-radiation; format: cell-based; conditions: pre-treatment 24 hours
Description: Keratinocytes pre-treated with Formulations 1, 2 and 3 (Table 9) for 24 hours prior to exposure to 0, 2 and 12 Gy (137Cs) and incubated for a further hour; 37° C., 5% (v/v) CO2, before staining for γH2AX as previously described.

PBMC = assay: Western blotting of histone methylation, PBMC; format: cell-based, human; conditions: 100 μM, 24 hours
K562 cells [2] = assay: Total Antioxidant Capacity Assay, K562; format: cell-based, human; conditions: 50 μM hydroxytyrosol or Formulation 2 (4× diluted), 24 hours
K562 cells [3] = assay: Western blotting of histone methylation, K562; format: cell-based, human; conditions: K562, 100 μM, 24 hours
[4] = 100 μM HT, negative = down-regulated
[5] = 100 μM HT, negative = down-regulated, listed as hydroxytyrosol
[6] = 100 μM hydroxytyrosol, unsigned

OCCc1ccc(O)c(O)c1 [HT, 4-(2-hydroxyethyl)-1,2-benzenediol]
HDAC9 expression Fold Change (DOWN) (K562 cells [1]; 20 μM HT): 1.82 fold and 2.00 fold | KDM4C expression Fold Change (DOWN) (K562 cells [1]; 20 μM HT): 1.61 fold | NCOA2 expression Fold Change (DOWN) (K562 cells [1]; 20 μM HT): 1.63 fold | PHF8 expression Fold Change (DOWN) (K562 cells [1]; 20 μM HT): 1.62 fold | PRDM1 expression Fold Change (DOWN) (K562 cells [1]; 20 μM HT): 1.68 fold | PRDM6 expression Fold Change (UP) (K562 cells [1]; 20 μM HT): 3.50 fold | PRDM12 expression Fold Change (DOWN) (K562 cells [1]; 20 μM HT): 1.50 fold | PRMT8 expression Fold Change (DOWN) (K562 cells [1]; 20 μM HT): 2.13 fold | EHMT1 expression Fold Change (DOWN) (K562 cells [1]; 100 μM HT): 1.63 fold | GTF3C4 expression Fold Change (DOWN) (K562 cells [1]; 100 μM HT): 1.55 fold | HDAC7 expression Fold Change (DOWN) (K562 cells [1]; 100 μM HT): 1.76 fold and 1.78 fold | HDAC9 expression Fold Change (UP) (K562 cells [1]; 100 μM HT): 2.05 fold and 1.50 fold | KDM4A expression Fold Change (UP) (K562 cells [1]; 100 μM HT): 1.71 fold | KDM4C expression Fold Change (DOWN) (K562 cells [1]; 100 μM HT): 1.66 fold | KDM6B expression Fold Change (UP) (K562 cells [1]; 100 μM HT): 1.70 fold | MLL3 expression Fold Change (DOWN) (K562 cells [1]; 100 μM HT): 1.68 fold | NCOA2 expression Fold Change (DOWN) (K562 cells [1]; 100 μM HT): 1.50 fold | NPM2 expression Fold Change (DOWN) (K562 cells [1]; 100 μM HT): 3.33 fold | PPARGC1A expression Fold Change (UP) (K562 cells [1]; 100 μM HT): 2.00 fold | PRDM6 expression Fold Change (DOWN) (K562 cells [1]; 100 μM HT): 2.00 fold | PRDM9 expression Fold Change (UP) (K562 cells [1]; 100 μM HT): 1.85 fold | PRDM10 expression Fold Change (DOWN) (K562 cells [1]; 100 μM HT): 1.92 fold | PRDM12 expression Fold Change (UP) (K562 cells [1]; 100 μM HT): 2.00 fold | PRDM15 expression Fold Change (DOWN) (K562 cells [1]; 100 μM HT): 1.78 fold | PRMT8 expression Fold Change (DOWN) (K562 cells [1]; 100 μM HT): 1.89 fold | RPS6KA5 expression Fold Change (UP) (K562 cells [1]; 100 μM HT): 1.56 fold | SETD1A expression Fold Change (DOWN) (K562 cells [1]; 100 μM HT): 1.56 fold | SETD7 expression Fold Change (UP) (K562 cells [1]; 100 μM HT): 3.41 fold | SMYD3 expression Fold Change (UP) (K562 cells [1]; 100 μM HT): 1.60 fold and 1.57 fold | ACLY expression Fold Change, K562 + 100 μM HT (K562 cells [1]; [4]): −1.60 fold | AKT3 expression Fold Change, K562 + 100 μM HT (K562 cells [1]; [4]): 2.04 fold | BBC3 expression Fold Change, K562 + 100 μM HT (K562 cells [1]; [4]): 2.66 fold | C12orf5 expression Fold Change, K562 + 100 μM HT (K562 cells [1]; [4]): 3.57 fold | CASP4 expression Fold Change, K562 + 100 μM HT (K562 cells [1]; [4]): 1.87 fold | CASP7 expression Fold Change, K562 + 100 μM HT (K562 cells [1]; [4]): 2.27 fold | CASP8 expression Fold Change, K562 + 100 μM HT (K562 cells [1]; [4]): 1.62 fold | ME1 expression Fold Change, K562 + 100 μM HT (K562 cells [1]; [4]): 2.22 fold | PFKFB2 expression Fold Change, K562 + 100 μM HT (K562 cells [1]; [4]): −1.53 fold | PFKFB4 expression Fold Change, K562 + 100 μM HT (K562 cells [1]; [4]): −1.79 fold | SLC1A4 expression Fold Change, K562 + 100 μM HT (K562 cells [1]; [4]): 4.28 fold | SREBF1 expression Fold Change, K562 + 100 μM HT (K562 cells [1]; [4]): −1.69 fold | TFR2 expression Fold Change, K562 + 100 μM HT (K562 cells [1]; [4]): −1.90 fold | TP53 expression Fold Change, K562 + 100 μM HT (K562 cells [1]; [4]): 2.30 fold | VEGFA expression Fold Change, K562 + 100 μM HT (K562 cells [1]; [4]): 2.65 fold | BBC3 expression Fold Change, K562 + 100 μM HT (K562 cells [1]; [5]): 2.29 fold | CASP7 expression Fold Change, K562 + 100 μM HT (K562 cells [1]; [5]): 2.01 fold | TP53 expression Fold Change, K562 + 100 μM HT (K562 cells [1]; [5]): 1.91 fold | differentially expressed Warburg-related genes reversing expression towards that observed in PBMC cells (K562 cells [1]; 100 μM hydroxytyrosol): 87% | ACLY down-regulated, fold change (K562 cells [1]; [6]): 1.59 fold | PFKB2 down-regulated, fold change (K562 cells [1]; [6]): 1.53 fold | PFKFB4 down-regulated, fold change (K562 cells [1]; [6]): 1.79 fold | transferrin receptor 2 (TRF2) down-regulated (K562 cells [1]; [6]): 1.9 fold | differential expression of the Warburg-related genes regulated in K562 vs PBMC (K562 cells [1]; 100 μM hydroxytyrosol, share of the 51 genes): 30% | radiation-induced DNA damage (human keratinocytes): protects | histone H3 lysine 9 (H3K9) di-methylation (PBMC): decreased | total antioxidant capacity (K562 cells [2]): deplete total antioxidant capacity | histone H3 lysine 9 (H3K9) di-methylation (K562 cells [3]): increased

From patent US10231939B2, “Hydroxytyrosol and oleuropein compositions for induction of DNA damage, cell death and LSD1 inhibition” (priority 2012, dated 2019)
